Measurements from BindingDB's records for doi:10.3109/14756369809021481 (Laboratoire De Chimie Bioorganique, 1998).

molecular target: S-adenosylmethionine synthase isoform type-2 (Rattus norvegicus, UniProt P18298); experiment: Inhibition Assay; conditions: pH 7.5; 37 °C
Description: AdoMet synthetase activity was measured by a radioactive assay using (14C-methyl)-L-methionine as described by Sullivan and Hoffman with minor modification to give better efficiency in the separation of labelled residual methionine and AdoMet formed.

S-adenosylmethionine synthase isoform type-2, sequence (P18298 whole entry, canonical isoform): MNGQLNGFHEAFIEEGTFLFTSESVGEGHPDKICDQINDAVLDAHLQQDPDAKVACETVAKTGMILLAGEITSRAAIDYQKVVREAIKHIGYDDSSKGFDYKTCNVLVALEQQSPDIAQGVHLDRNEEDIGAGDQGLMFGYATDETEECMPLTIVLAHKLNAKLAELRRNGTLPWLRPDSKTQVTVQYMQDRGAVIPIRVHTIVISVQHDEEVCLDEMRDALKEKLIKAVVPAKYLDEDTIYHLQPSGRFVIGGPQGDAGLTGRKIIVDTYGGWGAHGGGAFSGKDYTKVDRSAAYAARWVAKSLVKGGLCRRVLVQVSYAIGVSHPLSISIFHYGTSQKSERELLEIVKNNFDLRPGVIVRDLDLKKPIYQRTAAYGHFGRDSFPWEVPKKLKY

Structure (SMILES)	IC50 [µM]	Ki [µM]
N[C@@H](C[C@@H]1CS1)C(=O)O [Epithioamino acid analogue, II(a)]	140	100
C[C@H]1S[C@@H]1C[C@H](N)C(=O)O [Epithioamino acid analogue, II(b)]	300	140
C[C@@H]1S[C@@H]1C[C@H](N)C(=O)O [Epithioamino acid analogue, II(c)]	400	140
N[C@@H](C[C@H]1CO1)C(=O)O [Epoxy analogue, I(a)]	50	7
C[C@H]1O[C@H]1C[C@H](N)C(=O)O [Epoxy analogue, I(b)]	100	61
C[C@@H]1O[C@H]1C[C@H](N)C(=O)O [Epoxy analogue, I(c)]	110	105
